The target in experiment [1] is T1, LDH (L-lactate dehydrogenase) (Plasmodium falciparum, UniProt Q76NM3).
T1 construct: gene PF3D7_1324900; gene amplified from 3D7 genomic DNA, pET28a, E. coli BL21(DE3)-star, Ni-NTA purified
The experiment in a line: LDH inhibition assay, absorbance at […] nm. It is filed as biochemical. The settings on record: 0-80 uM artesunate, haemin 200 uM and L-ascorbic acid 200 uM, 4 h preincubation at 37 °C; covalent, haem-activated.

A further experiment has as its target T2, PyrK (pyruvate kinase) (Plasmodium falciparum, UniProt C6KTA4).
T2 construct: gene PF3D7_0626800
T2 sequence (C6KTA4 1-511): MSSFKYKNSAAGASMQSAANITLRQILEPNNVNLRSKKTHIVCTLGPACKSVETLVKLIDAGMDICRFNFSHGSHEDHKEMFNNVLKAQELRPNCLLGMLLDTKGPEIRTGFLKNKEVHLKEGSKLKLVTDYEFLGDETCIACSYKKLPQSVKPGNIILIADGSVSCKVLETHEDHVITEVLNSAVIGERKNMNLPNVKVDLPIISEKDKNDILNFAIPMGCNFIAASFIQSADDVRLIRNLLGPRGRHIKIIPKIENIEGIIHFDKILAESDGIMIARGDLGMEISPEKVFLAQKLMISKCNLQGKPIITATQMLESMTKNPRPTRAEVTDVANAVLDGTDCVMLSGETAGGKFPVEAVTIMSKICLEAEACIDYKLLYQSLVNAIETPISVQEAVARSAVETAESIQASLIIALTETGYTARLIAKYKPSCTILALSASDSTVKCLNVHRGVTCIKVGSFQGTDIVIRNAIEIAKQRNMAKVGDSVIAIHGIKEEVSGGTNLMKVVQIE
The experiment in a line: pyruvate kinase inhibition assay, absorbance at […] nm. The class given is biochemical. The settings on record: 0-80 uM artesunate, haemin 200 uM and L-ascorbic acid 200 uM, 4 h preincubation at 37 °C; covalent, haem-activated.

T1 sequence (Q76NM3 1-316): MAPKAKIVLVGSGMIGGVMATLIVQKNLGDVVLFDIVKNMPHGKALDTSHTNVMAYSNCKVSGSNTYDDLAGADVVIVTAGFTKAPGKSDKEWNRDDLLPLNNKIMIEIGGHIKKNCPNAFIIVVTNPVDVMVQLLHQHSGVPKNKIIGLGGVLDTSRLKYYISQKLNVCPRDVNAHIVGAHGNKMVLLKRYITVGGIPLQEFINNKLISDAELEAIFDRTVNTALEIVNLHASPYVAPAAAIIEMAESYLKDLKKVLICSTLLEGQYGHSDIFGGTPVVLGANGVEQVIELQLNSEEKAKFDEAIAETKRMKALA

`C[C@H]1[C@H](OC(=O)CCC(=O)O)O[C@@H]2O[C@@]3(C)CC[C@H]4[C@H](C)CC[C@@H]1[C@@]24OO3` [Arts, artesunate]: the dose-dependent inhibition entry (in experiment [1]; at PyrK (pyruvate kinase)) was “Functional assays showed that artesunate inhibits their enzymatic activities in a dose-dependent manner” in each case.
